Data set [1] deals with GAL4RXR + VP16CfEcR. In words: Transactivation of reporter gene through switch 1.3 in CHO cells. It counts as cell-based, Mus musculus; Choristoneura fumiferana. As to conditions: switch 1.3, pGAL4RELuc. The protocol:
(§1) The cells were harvested and reporter activity was assayed.
(§2) Cells were harvested 24–48 hr after adding ligands. […] Twenty μl of lysate was assayed.

The test system of data set [2] is GAL4CfEcRVP16. In words: Transactivation of reporter gene through switch 1.6 in CHO cells. It counts as cell-based, Choristoneura fumiferana. As to conditions: switch 1.6, pGAL4RELuc. The protocol: (§3) This construct was prepared so that both the GAL4 DNABD and the VP16AD were placed on the same molecule. GAL4DNABD (SEQ ID NO: 43) and VP16AD (SEQ ID NO: 49) were fused to CfEcRDEF (SEQ ID NO: 3) at N-and C-termini respectively.
as §1, §2
In general terms: In a reporter assay the amount or activity of a reporter protein is the signal.

Data set [3] deals with CfVgRXR + MmRXR. In words: Transactivation of reporter gene through switch 1.9 in CHO cells. It counts as cell-based, Choristoneura fumiferana; Mus musculus. As to conditions: switch 1.9, pIND(SP1)LacZ. The protocol:
(§4) This example was prepared in the same way as switch 1.8 except DmEcR was replaced with a truncated CfEcR comprising a partial A/B domain and the complete CDEF domains [SEQ ID NO: 70 (polynucleotide) and SEQ ID NO: 71 (polypeptide)].
as §1, §2

For data set [4], the system named is GAL4RXR + VP16CfEcR. In words: Transactivation of reporter gene through switch 1.3 in 3T3 cells. From the text: In various cellular backgrounds, including mammalian cells, insect ecdysone receptor (EcR) heterodimerizes with retinoid X receptor (RXR) and, upon binding of ligand, transactivates genes under the control of ecdysone response elements. […] The prepared receptor constructs comprise a ligand binding domain of EcR and of RXR or of USP; a DNA binding domain of GAL4 or of EcR; and an activation domain of VP16. The reporter constructs include a reporter gene, luciferase or LacZ, operably linked to a synthetic promoter construct that comprises either GAL4 or EcR/USP binding sites (response elements). Various combinations of these receptor and reporter constructs were cotransfected into CHO, NIH3T3, CV1 and 293 cells.
The same procedures described for CHO cells were followed for 3T3 cells as well with two modifications. The cells were plated when they reached 50% confluency. 125,000 or 50,000 or 25,000 cells were plated per well of 6- or 12- or 24-well plates respectively. […] The ligand treatments were performed as described in the CHO cell section above.

In data set [5] the test system is GAL4USP + VP16CfEcR. Description: Transactivation of reporter gene through switch 1.5 in 3T3 cells. It is filed as cell-based, Choristoneura fumiferana. The following applies: switch 1.5, pGAL4RELuc. The protocol: (§5) This construct was prepared in the same way as switch 1.3 except MmRXRDEF was replaced with CfUSPDEF (SEQ ID NO: 67).
as §1
(§6) The cells were plated when they reached 50% confluency.
as §2

Data set [6] concerns GAL4CfEcRVP16. Description: Transactivation of reporter gene through switch 1.6 in 3T3 cells. It counts as cell-based, Choristoneura fumiferana. As to conditions: switch 1.6, pGAL4RELuc. The protocol: as §3, §1, §6, §2
Data set [7] has as its system VP16CfEcR. Description: Transactivation of reporter gene through switch 1.7 in 3T3 cells. It is filed as cell-based, Choristoneura fumiferana. The following applies: switch 1.7, pEcRELuc. The procedure: (§7) Six ecdysone response elements (“EcRE”; SEQ ID NO: 55) from the hsp27 gene were placed upstream of the promoter and a luciferase gene (SEQ ID NO: 66). This switch most probably uses endogenous RXR.
as §1, §6, §2

The target of data set [8] is T1, DmVgRXR + MmRXR (Drosophila melanogaster, UniProt P34021, E282G/G283S/G286V). In words: Transactivation of reporter gene through switch 1.8 in 3T3 cells. It is filed as cell-based, Drosophila melanogaster; Mus musculus. The following applies: switch 1.8, pIND(SP1)LacZ.
T1 sequence (P28700 whole entry): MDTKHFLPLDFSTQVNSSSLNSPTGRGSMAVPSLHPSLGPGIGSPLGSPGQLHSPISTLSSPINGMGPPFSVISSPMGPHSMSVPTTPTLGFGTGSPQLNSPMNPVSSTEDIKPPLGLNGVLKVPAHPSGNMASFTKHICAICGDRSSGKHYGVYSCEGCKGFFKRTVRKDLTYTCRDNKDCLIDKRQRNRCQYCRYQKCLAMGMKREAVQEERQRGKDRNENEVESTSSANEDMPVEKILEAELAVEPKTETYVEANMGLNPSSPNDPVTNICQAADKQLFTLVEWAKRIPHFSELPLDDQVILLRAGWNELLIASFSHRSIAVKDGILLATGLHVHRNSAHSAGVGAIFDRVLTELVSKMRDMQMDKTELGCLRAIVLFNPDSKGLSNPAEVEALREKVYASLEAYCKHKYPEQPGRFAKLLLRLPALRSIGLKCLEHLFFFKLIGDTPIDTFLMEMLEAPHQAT
T1 sequence (P34021 whole entry E282G/G283S/G286V): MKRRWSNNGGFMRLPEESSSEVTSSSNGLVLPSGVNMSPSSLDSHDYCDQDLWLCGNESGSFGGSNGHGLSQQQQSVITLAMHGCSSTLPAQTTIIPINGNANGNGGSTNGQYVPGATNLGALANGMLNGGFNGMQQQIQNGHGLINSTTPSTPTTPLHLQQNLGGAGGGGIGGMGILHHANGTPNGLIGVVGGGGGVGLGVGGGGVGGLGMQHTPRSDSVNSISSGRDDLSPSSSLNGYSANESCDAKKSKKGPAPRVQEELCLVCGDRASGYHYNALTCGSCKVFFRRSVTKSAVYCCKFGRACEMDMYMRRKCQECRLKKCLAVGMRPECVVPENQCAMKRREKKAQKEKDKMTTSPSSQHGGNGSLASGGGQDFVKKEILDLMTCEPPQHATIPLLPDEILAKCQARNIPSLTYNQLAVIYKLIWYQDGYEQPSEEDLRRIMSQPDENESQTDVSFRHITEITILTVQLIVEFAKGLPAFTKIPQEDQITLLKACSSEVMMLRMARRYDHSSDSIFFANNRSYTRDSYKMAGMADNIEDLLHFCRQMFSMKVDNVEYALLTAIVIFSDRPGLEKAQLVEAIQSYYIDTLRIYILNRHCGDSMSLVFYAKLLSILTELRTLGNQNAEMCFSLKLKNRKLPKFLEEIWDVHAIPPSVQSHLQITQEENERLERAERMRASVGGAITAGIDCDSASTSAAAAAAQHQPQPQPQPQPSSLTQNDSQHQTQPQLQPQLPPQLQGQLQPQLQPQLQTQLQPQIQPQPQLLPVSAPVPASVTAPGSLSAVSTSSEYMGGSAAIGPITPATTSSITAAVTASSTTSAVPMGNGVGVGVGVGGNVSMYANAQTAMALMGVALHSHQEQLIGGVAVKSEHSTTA
Data set [9] has as its system CfVgRXR + MmRXR. In words: Transactivation of reporter gene through switch 1.9 in 3T3 cells. It is filed as cell-based, Choristoneura fumiferana; Mus musculus. The following applies: switch 1.9, pIND(SP1)LacZ. The procedure: as §4, §1, §6, §2
For data set [10], the system named is CfVgRXR. Description: Transactivation of reporter gene through switch 1.10 in 3T3 cells. It is filed as cell-based, Choristoneura fumiferana. The following applies: switch 1.10, pIND(SP1)LacZ. The protocol:
(§8) This example was prepared in the same way as switch 1.9 except MmRXR (SEQ ID NO: 62) was deleted.
as §1, §6, §2

Data set [11] concerns GAL4USP + VP16CfEcR. Description: Transactivation of reporter gene through switch 1.5 in 293 cells. It counts as cell-based, Choristoneura fumiferana. The following applies: switch 1.5, pGAL4RELuc. The protocol: as §5, §1
(§9) The same procedures described for CHO were followed for 293 cells except that the cells were plated in biocoated plates to avoid clumping.
as §2

The test system of data set [12] is GAL4CfEcRVP16. Description: Transactivation of reporter gene through switch 1.6 in 293 cells. As to conditions: switch 1.6, pGAL4RELuc. It is filed as cell-based, Choristoneura fumiferana. The procedure:
as §3, §1, §9, §2

Data set [13] has as its system VP16CfEcR. Description: Transactivation of reporter gene through switch 1.7 in 293 cells. As to conditions: switch 1.7, pEcRELuc. It counts as cell-based, Choristoneura fumiferana. The procedure: as §7, §1, §9, §2
For data set [14], the system named is GAL4RXR + VP16CfEcR. Description: Transactivation of reporter gene through switch 1.3 in CV1 cells. It counts as cell-based, Mus musculus; Choristoneura fumiferana. As to conditions: switch 1.3, pGAL4RELuc. The protocol:
as §1, §6
(§10) The same procedures described for NIH3T3 cells were followed for CV1 cells
as §2

In data set [15] the test system is GAL4USP + VP16CfEcR. In words: Transactivation of reporter gene through switch 1.5 in CV1 cells. It counts as cell-based, Choristoneura fumiferana. The following applies: switch 1.5, pGAL4RELuc. The procedure:
as §5, §1, §6, §10, §2

Data set [16] relates to GAL4CfEcRVP16. In words: Transactivation of reporter gene through switch 1.6 in CV1 cells. It is filed as cell-based, Choristoneura fumiferana. The following applies: switch 1.6, pGAL4RELuc. The protocol:
as §3, §1, §6, §10, §2

Data set [17] concerns CfVgRXR + MmRXR. In words: Transactivation of reporter gene through switch 1.9 in CV1 cells. It counts as cell-based, Choristoneura fumiferana; Mus musculus. As to conditions: switch 1.9, pIND(SP1)LacZ. The procedure:
as §4, §1, §6, §10, §2

Data set [18] concerns CfVgRXR. In words: Transactivation of reporter gene through switch 1.10 in CV1 cells. It counts as cell-based, Choristoneura fumiferana. The following applies: switch 1.10, pIND(SP1)LacZ. The procedure: as §8, §1, §6, §10, §2
Data set [19] concerns the target T1, DmVgRXR + MmRXR. Description: Transactivation of reporter gene through switch 1.8 in CV1 cells. Also noted: host or cells: CHO, NIH3T3, 293 or CV1 cells. It counts as cell-based, Drosophila melanogaster; Mus musculus. The following applies: switch 1.8, pIND(SP1)LacZ.
Source text: This system was purchased from Invitrogen Corp., Carlsbad, California. It comprises a Drosophila melanogaster EcR (“DmEcR”) with a modified DNABD fused to VP16AD and placed under the control of a CMV promoter (SEQ ID NO: 68). Full length MmRXR (SEQ ID NO: 62) was placed under the control of the RSV promoter (SEQ ID NO: 69). The reporter, pIND(SP1)LacZ, contains five copies of a modified ecdysone response element (“EcRE”, E/GRE), three copies of an SPI enhancer, and a minimal heat shock promoter, all of which were placed upstream to the LacZ reporter gene.
as §1, §6, §10, §2

As to `CCc1c(OC)cccc1C(=O)NN(C(=O)c1cc(C)cc(C)c1)C(C)(C)C` [N-(2-ethyl-3-methoxybenzoyl)-N′-(3,5-dimethylbenzoyl)-N′-t-butylhydrazine], the “Mean Fold Activation with 50 μM N-(2-ethyl-3-methoxybenzoyl)-N′-(3,5-dimethylbenzoyl)-N′-t-butylhydrazine” value is reported as 85 fold in the data set with GAL4RXR + VP16CfEcR [1], 9 fold in the data set on GAL4CfEcRVP16 [2] and 27 fold in the data set with CfVgRXR + MmRXR [3]. Also, the “Mean Fold Induction at 1.0 μM Concentration” value in the data set with GAL4RXR + VP16CfEcR [4] (GAL4MmRXRDEF/VP16CfEcRCDEF (switch 1.3), 1.0 μM ligand) is 71 fold. Besides, the “Mean Fold Activation Through N-(2-ethyl-3-methoxybenzoyl)-N′-(3,5-dimethylbenzoyl)-N′-t-butylhydrazine” value with GAL4RXR + VP16CfEcR [4] (switch 1.3, pGAL4RELuc) is recorded as 47 fold; with GAL4USP + VP16CfEcR [5] it was 3 fold; in the data set on GAL4CfEcRVP16 [6], 7 fold; with VP16CfEcR [7], 1 fold; at DmVgRXR + MmRXR [8] it was 21 fold; in the data set on CfVgRXR + MmRXR [9], 19 fold. Also, the “Mean Fold Activation Through N-(2-ethyl-3-methoxybenzoyl)-N′-(3,5-dimethylbenzoyl)-N′-t-butylhydrazine” value in the data set on CfVgRXR [10] is given as 2 fold; in the data set with GAL4USP + VP16CfEcR [11], 2 fold; in the data set on GAL4CfEcRVP16 [12] it was 3 fold; in the data set on VP16CfEcR [13], 2 fold; in the data set with GAL4RXR + VP16CfEcR [14], 25 fold; in the data set on GAL4USP + VP16CfEcR [15], 3 fold. Also, the “Mean Fold Activation Through N-(2-ethyl-3-methoxybenzoyl)-N′-(3,5-dimethylbenzoyl)-N′-t-butylhydrazine” value in the data set on GAL4CfEcRVP16 [16] was found to be 6 fold; in the data set with CfVgRXR + MmRXR [17], 7 fold; in the data set with CfVgRXR [18] it was 1 fold; on DmVgRXR + MmRXR [19] it was 12 fold.

The values are drawn from patent publication US7091038B2, “Ecdysone receptor-based inducible gene expression system” (RheoGene, Inc., priority 2000, dated 2006).
